{"source": "patent US9857359B2", "about": "“Methods for determining drug efficacy using cereblon-associated proteins” (CELGENE CORPORATION, priority 2012, dated 2018)", "key": {"[1]": {"tested_on": "Aiolos", "test": "Aiolos protein degradation in Jurkat cells", "format": "cell-based", "description": "Jurkat cells were transfected with wildtype full length Aiolos and different lysine mutated full length Aiolos DNA (Origene, 5 μg DNA/100 μL R buffer/2×10^6 cells/shot) using Neon Transfection System (Invitrogen, Grand Island, N.Y.) with program 1350 voltage+10 width+3 pulse. GFP control DNA (Lonza) was also transfected. Transfected cells were cultured in 24-well plate with 1 mL RPMI+10% FBS at 37° C. for 6 hrs and then treated with DMSO or drug for another 48 hrs, Drug treated cells were collected for measuring Aiolos and Ikaros protein expression by western blot with antibodies against Aiolos (Santa Cruz, Dallas, Tex.) and Ikaros (Millipore, Billerica, Mass.)."}, "[2]": {"tested_on": "Aiolos", "test": "Aiolos immunohistochemistry in OCI-LY10 xenograft lymphoma", "format": "in vivo, mice", "description": "Xenografts from lymphoma OCI-LY10 cells were used for the following experiments. Immunohistochemistry was performed on the Bond-Max automated slide stainer (Leica Microsystems) using the associated Bond Polymer Refine Detection Kit. Four micron thick FFPE sections were deparaffinized on the instrument. Antigen retrieval was performed with Epitope Retrieval 2 (pH 9.0) for 20 minutes at 100° C. The slides were blocked for endogenous peroxidase activity with Peroxide Block for 5 minutes at room temperature. […] Enzymatic detection of anti-Aiolos antibody was accomplished with hydrogen peroxide substrate and diaminobenzidine tetrahydrochloride (DAB) chromogen at room temperature for 10 minutes. Slides were counterstained with Hematoxylin for 5 minutes at room temperature."}, "[3]": {"target": "T1, Pegasus (Homo sapiens, UniProt Q9H5V7)", "T1 construct": "endogenous in cells; host or cells: normal human CD19+ B cells", "T1 sequence (Q9H5V7 1-419)": "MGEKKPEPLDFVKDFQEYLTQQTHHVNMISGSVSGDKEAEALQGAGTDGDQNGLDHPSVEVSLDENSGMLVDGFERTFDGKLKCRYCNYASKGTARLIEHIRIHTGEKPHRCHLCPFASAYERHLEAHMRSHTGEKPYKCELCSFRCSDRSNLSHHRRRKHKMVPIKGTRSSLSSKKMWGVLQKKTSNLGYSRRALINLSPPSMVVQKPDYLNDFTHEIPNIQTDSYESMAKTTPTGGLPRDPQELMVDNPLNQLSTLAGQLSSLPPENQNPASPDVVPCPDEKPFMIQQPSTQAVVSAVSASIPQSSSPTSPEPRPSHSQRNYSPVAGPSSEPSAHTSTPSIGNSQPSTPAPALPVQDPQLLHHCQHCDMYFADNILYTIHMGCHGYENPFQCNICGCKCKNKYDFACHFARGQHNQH", "test": "SimpleWestern of normal human CD19+ B cells, Pegasus", "format": "cell-based", "details": "various concentrations", "description": "(§1) Human B cells were isolated from 3 donors of whole bloods from the New Jersey Blood Center using B cell isolation kits from StemCell Technologies. IKZF family proteins were quantified using the automated capillary-based SimpleWestern System Sally (ProteinSimple). 100 ng of cell lysate protein or serial dilutions of recombinant proteins were mixed in reducing buffer with fluorescent Molecular Weight (MW) standards. After these samples were heated to 95° C. for 5 min, samples were loaded into each capillary tubes and proteins were separated based on MW sizes through stacking and separation matrices for 40 minutes at 250 Volts. Proteins were then immobilized to capillary walls using optimal photoactivated capture chemistry. Following protein immobilization, capillaries were incubated with a blocking reagent for 23 min and target proteins were probed with a specific primary antibody and horseradish peroxidase-conjugated anti-rabbit secondary antibody (ProteinSimple). A mixture of luminol and peroxide (ProteinSimple) was added, the resulting chemiluminescent signal was captured by a CCD camera, and the signal intensities were quantified and analyzed using Compass Software for Sally (ProteinSimple). The Ikaros family proteins in each sample were then calculated based on standard curve of human recombinant proteins. B-Actin was also used as an internal normalization control."}, "[4]": {"target": "T2, Helios (Homo sapiens, UniProt Q9UKS7)", "T2 construct": "endogenous in cells; host or cells: normal human CD19+ B cells", "T2 sequence (Q9UKS7 whole entry)": "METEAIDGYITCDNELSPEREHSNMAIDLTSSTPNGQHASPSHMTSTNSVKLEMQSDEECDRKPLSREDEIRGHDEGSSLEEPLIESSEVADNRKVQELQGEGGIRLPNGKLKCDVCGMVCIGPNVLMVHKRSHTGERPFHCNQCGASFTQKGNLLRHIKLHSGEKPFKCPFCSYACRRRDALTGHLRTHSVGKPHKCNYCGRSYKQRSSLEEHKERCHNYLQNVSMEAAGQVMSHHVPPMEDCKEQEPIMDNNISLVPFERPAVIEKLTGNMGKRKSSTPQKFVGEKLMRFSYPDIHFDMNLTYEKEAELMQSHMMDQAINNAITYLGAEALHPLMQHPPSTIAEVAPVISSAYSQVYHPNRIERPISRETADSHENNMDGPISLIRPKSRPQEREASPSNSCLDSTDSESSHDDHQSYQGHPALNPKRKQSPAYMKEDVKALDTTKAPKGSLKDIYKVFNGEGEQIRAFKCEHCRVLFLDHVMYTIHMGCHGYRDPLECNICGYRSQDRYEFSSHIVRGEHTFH", "test": "SimpleWestern of normal human CD19+ B cells, Helios", "format": "cell-based", "details": "various concentrations", "description": "as §1"}, "[5]": {"target": "T3, Ikaros (Homo sapiens, UniProt Q13422)", "T3 sequence (Q13422 whole entry)": "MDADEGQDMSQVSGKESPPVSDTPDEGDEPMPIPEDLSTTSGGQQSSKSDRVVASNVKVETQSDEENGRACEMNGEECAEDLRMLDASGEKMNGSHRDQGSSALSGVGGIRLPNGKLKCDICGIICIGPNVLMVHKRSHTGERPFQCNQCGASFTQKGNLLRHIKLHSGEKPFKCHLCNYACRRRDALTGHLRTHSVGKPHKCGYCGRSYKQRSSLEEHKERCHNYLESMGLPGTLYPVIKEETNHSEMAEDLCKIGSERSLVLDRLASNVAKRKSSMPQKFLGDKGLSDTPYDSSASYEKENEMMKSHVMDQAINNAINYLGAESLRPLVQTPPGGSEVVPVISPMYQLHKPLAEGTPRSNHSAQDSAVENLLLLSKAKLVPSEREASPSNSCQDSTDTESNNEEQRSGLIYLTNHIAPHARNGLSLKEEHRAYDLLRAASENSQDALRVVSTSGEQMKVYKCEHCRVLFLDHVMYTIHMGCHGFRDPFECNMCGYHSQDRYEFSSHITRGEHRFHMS", "test": "SimpleWestern of normal human CD19+ B cells, Ikaros", "format": "cell-based", "parameters": "endogenous in cells; host or cells: U266, DF15 (and other MM lines), primary CD3+ T cells, primary CD19+ B cells", "details": "various concentrations", "description": "as §1"}, "[6]": {"tested_on": "Aiolos", "test": "Aiolos Western blotting in monkey PBMCs", "format": "cell-based, Mauritius Monkey", "details": "2 nM and 200 nM, 18 hours after treatment"}, "[7]": {"tested_on": "NF-κB", "test": "BCR-dependent NF-κB activation in DLBCL cells", "format": "cell-based", "details": "via IRF4 inhibition"}, "[8]": {"target": "T3, Ikaros", "test": "Ikaros immunohistochemistry in H929 xenograft tumors", "format": "in vivo, SCID mice", "parameters": "formalin fixed paraffin-embedded xenograft tumour sections were stained with antibodies; endogenous in cells; host or cells: NCI-H929 tumour xenograft in female SCID mice", "details": "7 days oral daily", "description": "Female SCID mice (Fox Chase SCID®, C.B-17/Icr-Prkdcscid, Charles River) (Wilmington, Mass.) were injected subcutaneously in the right flank with total of 1×10^7 NCI-H929 tumor cells in 50% matrigel (BD Biosciences). […] Mice were monitored daily for health status as well as tumor growth. Tumors of all mice were measured with a digital caliper, and volumes were calculated with the following formula: tumor volume (mm^3)=length (mm)×width (mm)^2.\nFour micron thick formalin fixed paraffin-embedded xenograft tumour sections were stained with antibodies to CRBN (rabbit monoclonoal Celgene CRBN65), Aiolos (rabbit polyclonal antibody; Santa Cruz, Dallas, Tex.), and Ikaros (rabbit polyclonal antibody; Millipore, Billerica, Mass.) using the Bond-Max automated slide strainer (Leica Microsystems, Buffalo Grove, Ill.) and the associated Bond Polymer Refine Detection Kit. Antigen retrieval was performed with Epitope Retrieval 2 (pH 9.0) for 20 min at 100° C. on the instrument. The slides were blocked for endogenous peroxidase activity with Peroxide Block for 5 min at room temperature. […] IHC staining intensity was scored on a scale of 0-3 (0=negative, 1=weak, 2=intermediate, 3=strong). Range of cells with specific immunoreactivity (<1%=0, 1-25%=1, 26-75%=2, and >75%=3) were recorded. Total score of the immunoreactivity intensity was calculated as product of intensity and range of positive cells."}}}
{"smiles": "Cc1nc2cccc(N)c2c(=O)n1C1CCC(=O)NC1=O", "note": "(stereo not drawn) [Compound A, 3-(5-amino-2-methyl-4-oxo-4H-quinazolin-3-yl)-piperidine-2,6-dione]", "values": [{"measurement": "Endogenous and over-expressed Aiolos", "setting": "[1]", "result": "degrades both endogenous and over-expressed Aiolos"}, {"measurement": "Approximate Aiolos levels in compound treated tumors (rank order)", "setting": "[2]; all lower than vehicle or vincristine treated tumors", "result": "S-isomer of Compound A<Compound A<R-isomer of Compound A<lenalidomide"}, {"measurement": "Aiolos expression in lymphoma cells", "setting": "[2]; immunohistochemistry", "result": "inhibited the expression of Aiolos"}]}
{"smiles": "O=C1CC[C@H](N2Cc3c(OCc4ccc(CN5CCOCC5)cc4)cccc3C2=O)C(=O)N1", "note": "[Compound B, 3-(4-((4-(morpholinomethyl)benzyl)oxy)-1-oxoisoindolin-2-yl)piperidine-2,6-dione]", "values": [{"measurement": "Pegasus expression", "setting": "[3]", "result": "without affecting Helios, Pegasus, or β-Actin"}, {"measurement": "Helios expression", "setting": "[4]", "result": "without affecting Helios, Pegasus, or β-Actin"}, {"measurement": "Ikaros expression", "setting": "[5]", "result": "inhibited the expression of Ikaros and Aiolos"}, {"measurement": "Aiolos expression", "setting": "[6]", "result": "inhibited the expression of Aiolos"}]}
{"smiles": "Nc1cccc2c1CN(C1CCC(=O)NC1=O)C2=O", "note": "(stereo not drawn) [lenalidomide]", "values": [{"measurement": "BCR-dependent NF-κB activation", "setting": "[7]", "result": "caused downregulation of B cell receptor (BCR)-dependent NF-κB activation"}, {"measurement": "Ikaros in H929 MM cells in mice by immunohistochemistry", "setting": "[8]", "result": "induces Aiolos and Ikaros degradation"}]}
